Source: US20230086702A1, “SUBSTITUTED 2-AMINO-PYRAZOLYL-[1,2,4]TRIAZOLO[1,5A]PYRIDINE DERIVATIVES AND USE THEREOF” (The Johns Hopkins University, priority 2019, published 2023)

Assays:
DLK = target: T1, DLK (Homo sapiens, UniProt Q12852); assay: DLK biochemical assay (TR-FRET, MKK7 phosphorylation)
T1 construct: 10 nM DLK, catalytic domain, Carna Biosiences; purchased Carna Biosciences ('Carna Biosiences' [sic])
T1 sequence (Q12852 125-366 limits assumed): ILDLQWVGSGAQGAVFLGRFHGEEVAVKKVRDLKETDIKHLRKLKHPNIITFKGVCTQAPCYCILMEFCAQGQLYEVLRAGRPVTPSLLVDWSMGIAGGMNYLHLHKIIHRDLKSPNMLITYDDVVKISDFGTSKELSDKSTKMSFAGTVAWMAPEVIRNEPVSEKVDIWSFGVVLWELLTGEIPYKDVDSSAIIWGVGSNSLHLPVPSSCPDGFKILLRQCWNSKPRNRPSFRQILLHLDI
Summary of the method: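 DLK catalytic domain (10 nM) phosphorylates His-MKK7 (15 nM) at 60 μM ATP for 90 min at RT in pH 7.5 Hepes buffer (final concentrations). Phospho-T275/S277 is detected by TR-FRET (Eu anti-phospho donor, XL665 anti-His acceptor) after 16 h at 37° C (1536 format) or 4° C (384 format).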

LZK = target: T2, LZK (Homo sapiens, UniProt O43283); assay: LZK biochemical assay (TR-FRET, MKK7 phosphorylation)
T2 construct: 10 nM LZK, catalytic domain, Carna Biosiences in assay buffer; purchased Carna Biosciences ('Carna Biosiences' [sic])
T2 sequence (O43283 168-409 limits assumed): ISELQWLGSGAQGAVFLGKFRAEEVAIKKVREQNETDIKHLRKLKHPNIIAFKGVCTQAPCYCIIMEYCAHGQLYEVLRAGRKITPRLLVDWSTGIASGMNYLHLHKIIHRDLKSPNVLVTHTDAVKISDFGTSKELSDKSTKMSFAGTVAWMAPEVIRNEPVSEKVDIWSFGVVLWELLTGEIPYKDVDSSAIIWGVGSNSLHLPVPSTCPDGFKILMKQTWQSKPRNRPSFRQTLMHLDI
Summary of the method: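 LZK catalytic domain (10 nM) phosphorylates His-MKK7 (15 nM) with 15 µM ATP, all final, for 90 min at RT in HEPES buffer pH 7.5 with MgCl2. Phospho-T275/S277 detected by TR-FRET (Eu anti-phospho donor, XL665 anti-His acceptor) after 16 h at 32 °C in EDTA stop buffer. Inhibition lowers the 665/Eu ratio.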

Row | IC50 (DLK) [nM] | IC50 (LZK) [nM] | Structure (SMILES)
1 | 0.4 | 1.2 | Nc1nc2c(-c3ccc(=O)n(CC(F)F)c3)cc(-c3cnn(C(c4ccc(C(F)(F)F)nc4)C4CCOCC4)c3)cn2n1 (single isomer, unassigned) [II-158, 5-[2-Amino-6-(1-{tetrahydro-2H-pyran-4-yl[6-(trifluoromethyl)pyridin-3-yl]methyl}-1H-pyrazol-4-yl)[1,2,4]triazolo[1,5-a]pyridin-8-yl]-1-(2,2-difluoroethyl)pyridin-2(1H)-one]
2 | 6.8 | 110 | CCC(c1ccc(C(F)(F)F)cc1)n1cc(-c2cc(-c3cnn(C)c3)c3nc(N)nn3c2)cn1 (single isomer, unassigned) [II-101, 8-(1-Methyl-1H-pyrazol-4-yl)-6-(1-{1-[4-(trifluoromethyl)phenyl]propyl}-1H-pyrazol-4-yl)[1,2,4]triazolo[1,5-a]pyridin-2-amine]
3 | 1.3 | 2 | Nc1nc2cc(-c3cnn(C(c4ccc(C(F)(F)F)nc4)C4CCOCC4)c3)cc(-c3ccc(=O)n(CC(F)F)c3)n2n1 (stereo not drawn) [II-185]
4 | 11 | 25 | Nc1nc2c(-c3ccn(CC(F)F)c(=O)c3)cc(-c3cnn(C(c4ccc(C(F)(F)F)nc4)C4CCOCC4)c3)cn2n1 (single isomer, unassigned) [II-173, 4-[2-Amino-6-(1-{tetrahydro-2H-pyran-4-yl[6-(trifluoromethyl)pyridin-3-yl]methyl}-1H-pyrazol-4-yl)[1,2,4]triazolo[1,5-a]pyridin-8-yl]-1-(2,2-difluoroethyl)pyridin-2(1H)-one]
5 | 1.4 | 4.9 | Nc1nc2cc(-c3cnn(C(c4ccc(C(F)(F)F)nc4)C4CCOCC4)c3)cc(-c3cnn(CC(F)(F)F)c3)n2n1 (single isomer, unassigned) [II-150, 7-(1-{Tetrahydro-2H-pyran-4-yl[6-(trifluoromethyl)pyridin-3-yl]methyl}-1H-pyrazol-4-yl)-5-[1-(2,2,2-trifluoroethyl)-1H-pyrazol-4-yl][1,2,4]triazolo[1,5-a]pyridin-2-amine]
6 | 26 | 15 | CC(C)C(c1ccc(C(F)(F)F)nc1)n1cc(-c2cc(-c3ccc(C(F)F)nc3)n3nc(N)nc3c2)cn1 (racemic) [II-70, 5-[6-(Difluoromethyl)pyridin-3-yl]-7-(1-{2-methyl-1-[6-(trifluoromethyl)pyridin-3-yl]propyl}-1H-pyrazol-4-yl)[1,2,4]triazolo[1,5-a]pyridin-2-amine]
7 | 11 | 11 | Nc1nc2cc(-c3cnn(C(c4ccc(C(F)(F)F)nc4)C4CCOCC4)c3)cc(-c3cnn(CC(F)(F)F)c3)n2n1 (single isomer, unassigned) [II-151, 7-(1-{Tetrahydro-2H-pyran-4-yl[6-(trifluoromethyl)pyridin-3-yl]methyl}-1H-pyrazol-4-yl)-5-[1-(2,2,2-trifluoroethyl)-1H-pyrazol-4-yl][1,2,4]triazolo[1,5-a]pyridin-2-amine]
8 | 14 | 34 | CCC(c1ccc(C(F)(F)F)nc1)n1cc(-c2cc(-c3cnn(CC(F)(F)F)c3)c3nc(N)nn3c2)cn1 (racemic) [II-111, 8-[1-(2,2,2-trifluoroethyl)-1H-pyrazol-4-yl]-6-(1-{1-[6-(trifluoromethyl)pyridin-3-yl]propyl}-1H-pyrazol-4-yl)[1,2,4]triazolo[1,5-a]pyridin-2-amine]
9 | 4 | 27 | Nc1nc2c(-c3cn(CC(F)(F)F)c(=O)cn3)cc(-c3cnn(C(c4ccc(C(F)(F)F)nc4)C4CCOCC4)c3)cn2n1 (stereo not drawn) [II-166]
10 | 12 | 39 | Nc1nc2c(-c3cnn(CC4CC4(F)F)c3)cc(-c3cnn(Cc4ccccc4)c3)cn2n1 (racemic) [II-89, 6-(1-Benzyl-1H-pyrazol-4-yl)-8-{1-[(2,2-difluorocyclopropyl)methyl]-1H-pyrazol-4-yl}[1,2,4]triazolo[1,5-a]pyridin-2-amine]
11 | 0.6 | 1.2 | CC(C)(O)c1cccc(-c2cc(-c3cnn(C(c4ccc(C(F)(F)F)nc4)C4CCOCC4)c3)cn3nc(N)nc23)c1 (single isomer, unassigned) [II-12, 2-{3-[2-Amino-6-(1-{tetrahydro-2H-pyran-4-yl[6-(trifluoromethyl)pyridin-3-yl]methyl}-1H-pyrazol-4-yl)[1,2,4]triazolo[1,5-a]pyridin-8-yl]phenyl}propan-2-ol]
12 | 14 | 56 | CC[C@@H](c1ccc(F)cc1)n1cc(-c2cc(-c3cnn(CC(F)(F)F)c3)c3nc(N)nn3c2)cn1 [II-98, 6-{1-[(1S)-1-(4-fluorophenyl)propyl]-1H-pyrazol-4-yl}-8-[1-(2,2,2-trifluoroethyl)-1H-pyrazol-4-yl][1,2,4]triazolo[1,5-a]pyridin-2-amine]
13 | 150 | 260 | CC(C)c1nnc(-c2cc(-c3cnn(Cc4ccccc4)c3)cn3nc(N)nc23)s1 [II-198, 6-(1-Benzyl-1H-pyrazol-4-yl)-8-[5-(propan-2-yl)-1,3,4-thiadiazol-2-yl][1,2,4]triazolo[1,5-a]pyridin-2-amine]
14 | 2.3 | 1.7 | Nc1nc2c(-c3cc(CO)ccc3Cl)cc(-c3cnn(C(c4ccc(C(F)(F)F)nc4)C4CCOCC4)c3)cn2n1 (single isomer, unassigned) [II-5, {3-[2-Amino-6-(1-{tetrahydro-2H-pyran-4-yl[6-(trifluoromethyl)pyridin-3-yl]methyl}-1H-pyrazol-4-yl)[1,2,4]triazolo[1,5-a]pyridin-8-yl]-4-chlorophenyl}methanol]
15 | 0.9 | 2.7 | CS(=O)(=O)c1cccc(-c2cc(-c3cnn(C(c4ccc(C(F)(F)F)nc4)C4CCOCC4)c3)cn3nc(N)nc23)c1 (single isomer, unassigned) [II-15, 8-[3-(Methylsulfonyl)phenyl]-6-(1-{tetrahydro-2H-pyran-4-yl[6-(trifluoromethyl)pyridin-3-yl]methyl}-1H-pyrazol-4-yl)[1,2,4]triazolo[1,5-a]pyridin-2-amine]
16 | 240 | 140 | Nc1nc2c(-c3cnn(CC(F)(F)F)c3)cc(-c3cnn(C4CCN(C5COC5)CC4)c3)cn2n1 [II-120, 6-{1-[1-(Oxetan-3-yl)piperidin-4-yl]-1H-pyrazol-4-yl}-8-[1-(2,2,2-trifluoroethyl)-1H-pyrazol-4-yl][1,2,4]triazolo[1,5-a]pyridin-2-amine]
17 | 510 | 170 | CC(C)C(c1ccc(C(F)(F)F)nc1)n1cc(-c2cc(-c3ccc(C4CC(F)(F)C4)nc3)n3nc(N)nc3c2)cn1 (single isomer, unassigned) [II-74, 5-[6-(3,3-Difluorocyclobutyl)pyridin-3-yl]-7-(1-{2-methyl-1-[6-(trifluoromethyl)pyridin-3-yl]propyl}-1H-pyrazol-4-yl)[1,2,4]triazolo[1,5-a]pyridin-2-amine]
18 | 1.3 | 2.2 | Nc1nc2cc(-c3cnn(C(c4ccc(C(F)(F)F)nc4)C4CCOCC4)c3)cc(-c3ccc(=O)n(CC(F)(F)F)c3)n2n1 (single isomer, unassigned) [II-192, 5-[2-Amino-7-(1-{tetrahydro-2H-pyran-4-yl[6-(trifluoromethyl)pyridin-3-yl]methyl}-1H-pyrazol-4-yl)[1,2,4]triazolo[1,5-a]pyridin-5-yl]-1-(2,2,2-trifluoroethyl)pyridin-2(1H)-one]
19 | 22 | 200 | CC[C@@H](c1ccccc1)n1cc(-c2cc(-c3cnn(C(C)C(F)(F)F)c3)c3nc(N)nn3c2)cn1 (mixture of isomers) [II-94, 6-{1-[(15)-1-Phenylpropyl]-1H-pyrazol-4-yl}-8-[1-(1,1,1-trifluoropropan-2-yl)-1H-pyrazol-4-yl][1,2,4]triazolo[1,5-a]pyridin-2-amine]
20 | 3.6 | 17 | Nc1nc2cc(-c3cnn(C(c4ccc(C(F)(F)F)nc4)C4CCOCC4)c3)cc(-c3cn(CC(F)(F)F)c(=O)cn3)n2n1 (racemic) [II-194, 5-[2-Amino-7-(1-{tetrahydro-2H-pyran-4-yl[6-(trifluoromethyl)pyridin-3-yl]methyl}-1H-pyrazol-4-yl)[1,2,4]triazolo[1,5-a]pyridin-5-yl]-1-(2,2,2-trifluoroethyl)pyrazin-2(1H)-one]
21 | 6.2 | 15 | Nc1nc2c(-c3ccc(=O)n(C(F)F)c3)cc(-c3cnn(C(c4ccc(C(F)(F)F)nc4)C4CCOCC4)c3)cn2n1 (single isomer, unassigned) [II-154, 5-[2-Amino-6-(1-{tetrahydro-2H-pyran-4-yl[6-(trifluoromethyl)pyridin-3-yl]methyl}-1H-pyrazol-4-yl)[1,2,4]triazolo[1,5-a]pyridin-8-yl]-1-(difluoromethyl)pyridin-2(1H)-one]
